Results: ChEMBL document CHEMBL4007391, “Tackling Fungal Resistance by Biofilm Inhibitors” (J Med Chem, 2017)
Structures can show the parent of a compound that is named as a salt.

Columns and labels:
[1] = Toxicity in mouse; assay type: organism-based; details: in vivo
[2] = system: Candida albicans; assay: Antibiofilm activity against Candida albicans SC5314 after 24 hrs by XTT assay; assay type: functional; details: SC5314, 24 h
[3] = Cytotoxicity against human HepG2 assessed as reduction in cell viability after 24 hrs by CellTiter-Glo luminescent assay; assay type: cell-based; details: HepG2 cells
[4] = system: Candida albicans; assay: Antibiofilm activity against fluconazole-resistant Candida albicans 29E clinical isolates after 48 hrs by Alamar blue assay; assay type: functional
[5] = system: Candida albicans; assay: Antibiofilm activity against Candida albicans CAF2-1 after 48 hrs by Alamar blue assay; assay type: functional; details: CAF2-1, 48 h
[6] = system: Candida albicans; assay: Antibiofilm activity against Candida albicans SC5314 after 48 hrs by Alamar blue assay; assay type: functional; details: SC5314, 48 h
[7] = system: Candida albicans; assay: Inhibition of filament formation of tet-NRG1 expressing Candida albicans after 2 to 24 hrs; assay type: functional
[8] = system: Candida albicans; assay: Antibiofilm activity against Candida albicans SC5314 clinical isolates after 24 hrs by XTT assay; assay type: functional; details: Candida albicans, SC5314, 24 h
[9] = system: Candida albicans; assay: Antibiofilm activity against Candida albicans DAY185 after 24 hrs by XTT assay; assay type: functional
[10] = system: Candida albicans; assay: Antifungal activity against Candida albicans DAY185 by CLSI method; assay type: functional
[11] = system: Candida; assay: Antifungal activity against drug-resistant Candida spp. clinical isolates after 48 hrs by broth microdilution assay; assay type: functional
[12] = system: Candida; assay: Antifungal activity against Candida after 48 hrs by broth microdilution assay; assay type: functional
[13] = system: Candida albicans; assay: Antibiofilm activity against Candida albicans SC5314 after 24 hrs in presence of miconazole by Cell-Titer Blue assay; assay type: functional

Molecule `NC1C2CC3CC(C2)CC1C3` (stereo unspecified) has an LD50 [1] of 250 mg/kg.
Work on `Nc1cc(S(N)(=O)=O)ccc1SSc1ccc(S(N)(=O)=O)cc1N` yielded an IC50 [2] of 3.45 µM and a CC50 at 24 h [3] of 106 µM.
`CCN1/C(=C\c2ccc3ccccc3[n+]2CC)Sc2cc(C)ccc21` gave an IC50 [4] of 2.8 to 82.1 µM, an IC50 [5] of 2.8 to 82.1 µM and an IC50 [6] of 2.8 to 82.1 µM.
For `CCN1/C(=C/c2ccc3cc(C)ccc3[n+]2CC)Sc2cc(C)c(C)cc21`, the IC50 [4] was 231 to 268 µM, the IC50 [5] was 231 to 268 µM and the IC50 [6] was 231 to 268 µM.
With `Cc1ccccc1OCc1n(CC(=O)OC2CC(C)CCC2C(C)C)c2ccccc2[n+]1C` (stereo unspecified) the IC50 [4] was 9.8 to 24.3 µM, the IC50 [5] was 9.8 to 24.3 µM and the IC50 [6] was 9.8 to 24.3 µM.
In the case of `CCC(CO)N1C(C)=CC(=Cc2sc3ccccc3[n+]2Cc2ccccc2)C=C1C` (stereo unspecified), the IC50 [4] is reported as 1.7 to 119 µM, the IC50 [5] is reported as 1.7 to 119 µM and the IC50 [6] is reported as 1.7 to 119 µM.
Molecule `CCN(CC)CCN1c2ccccc2Sc2ccc3ccccc3c21` has an IC50 [7] of 3.8 µM and a CC50 at 24 h [3] of 50.8 µM.
Molecule `CC1OC(CC(=O)O)Cc2c(O)c3c(c(O)c21)C(=O)C=C(C1=CC(=O)c2c(O)c4c(c(O)c2C1=O)CC(CC(=O)O)OC4C)C3=O` (stereo unspecified) has an IC50 [2] of 3.31 µM and a CC50 at 24 h [3] of 96.1 µM.
Work on `Cc1cc(OCCOCC[N+](C)(C)Cc2ccccc2)ccc1C(C)(C)CC(C)(C)C` yielded an IC50 [8] of 8.9 µM.
For `CCCCCCCCCC(=O)[C@H]1C(=O)N[C@@H](CC(C)C)C(=O)N[C@H](C)C(=O)N2CCC[C@H]2C(=O)N[C@@H](C(C)C)C(=O)N[C@H]2CS[C@H]1CNC2=O`, the IC50 [9] was greater than 200 µM and the MIC [10] was greater than 200 µM.
Work on `CCCCCCCCCC(=O)[C@@H]1C(=O)N[C@@H](CC(C)C)C(=O)N[C@H](C)C(=O)N2CCC[C@H]2C(=O)N[C@@H](C(C)C)C(=O)N[C@H]2CS[C@H]1CNC2=O` yielded an IC50 [9] of 3.4 µM and an MIC [10] greater than 200 µM.
`Cc1c(CN2CCC3(CCCN(Cc4ccc(C(C)C)cc4)C3=O)C2)cnn1C` (stereo unspecified) showed an IC50 [2] of 3.15 µM and a CC50 at 24 h [3] of 62.7 to 104 µM.
With `CCCCCCCCCC(=O)[C@@H]1C(=O)N[C@@H](CC(C)C)C(=O)N[C@H](C)C(=O)N2CCC[C@H]2C(=O)N[C@@H]([C@@H](C)CC)C(=O)N[C@H]2CS[C@H]1CNC2=O` the IC50 [9] was 9.1 µM and the MIC [10] was greater than 200 µM.
Molecule `CC[C@@]1([C@@H]2O[C@@H]([C@H]3O[C@@](O)(CO)[C@H](C)C[C@@H]3C)C[C@@H]2C)CC[C@H]([C@]2(C)CCC3(C[C@H](O)[C@@H](C)[C@@H]([C@@H](C)[C@@H](OC)[C@H](C)C(=O)O)O3)O2)O1` (stereo partly specified) has an IC50 [8] of 6.4 µM.
Work on `CC(C)c1ccc(CN2CCCC3(CCN(CC4CCSCC4)C3)C2=O)cc1` (stereo unspecified) yielded an IC50 [2] of 3.36 µM and a CC50 at 24 h [3] of 62.7 to 104 µM.
`CC[C@H](C)[C@H](N)C1=N[C@H](C(=O)N[C@@H](CC(C)C)C(=O)N[C@H](CCC(=O)O)C(=O)N[C@@H](C(=O)N[C@@H]2CCCCNC(=O)[C@H](CC(N)=O)NC(=O)[C@@H](CC(=O)O)NC(=O)[C@H](Cc3cnc[nH]3)NC(=O)[C@@H](Cc3ccccc3)NC(=O)[C@H]([C@@H](C)CC)NC(=O)[C@@H](CCCN)NC2=O)[C@@H](C)CC)CS1` showed an IC50 [2] of 2.13 µM and a CC50 at 24 h [3] of 286 µM.
With `CCCCCCCCCC(=O)C1C(=O)N[C@@H](CC(C)C)C(=O)N[C@H](C)C(=O)N2CCC[C@H]2C(=O)N[C@@H](C(C)C)C(=O)N[C@@H](CC)C(=O)NCC1O` (stereo partly specified) the IC50 [9] was 5.3 µM and the MIC [10] was greater than 200 µM.
`CC[C@H](C)C1NC(=O)[C@@H](CCCN)NC(=O)[C@@H](NC(=O)[C@@H](NC(=O)[C@@H](CCC(=O)O)NC(=O)[C@H](CC(C)C)NC(=O)[C@@H]2CSC([C@@H](N)[C@@H](C)CC)=N2)[C@@H](C)CC)CCCCNC(=O)[C@H](CC(N)=O)NC(=O)[C@@H](CC(=O)O)NC(=O)[C@H](Cc2c[nH]cn2)NC(=O)[C@@H](Cc2ccccc2)NC1=O` (stereo partly specified) showed an IC50 [8] of 17 µM.
`CN(C)c1ccc(/C=C/c2cc(C(C)(C)C)[o+]c(C(C)(C)C)c2)cc1.[O-][Cl+3]([O-])([O-])[O-]` showed an MIC [11] of 0.5 to 1 µg/mL and an MIC [12] of 0.2 to 6.25 µg/mL.
`CC(C)c1ccc(CN2CCCC3(CCN(Cc4cccnc4)C3)C2=O)cc1` (stereo unspecified) gave an IC50 [2] of 4.59 µM and a CC50 at 24 h [3] of 62.7 to 104 µM.
Molecule `Cc1ncc(CN2CCC3(CCCN(Cc4ccc(C(C)C)cc4)C3=O)C2)cn1` (stereo unspecified) has an IC50 [2] of 2.7 µM and a CC50 at 24 h [3] of 62.7 to 104 µM.
In the case of `CO[C@H]1O[C@@H]2O[C@@]3(C)CC[C@H]4[C@H](C)CC[C@@H]([C@H]1C)[C@@]24OO3`, the “fractional inhibitory concentration index (FICI)” value [13] is reported as 0.112.
For `CCCCC(CC)CNC(=N)NC(=N)NCCCCCCNC(=N)NC(=N)NCC(CC)CCCC` (stereo unspecified) [ALEXIDINE DIHYDROCHLORIDE], the IC50 [8] was 5.4 µM.
For `C[C@@H]1CC[C@H]2[C@@H](C)C(=O)O[C@@H]3O[C@@]4(C)CC[C@@H]1[C@]32OO4` [ARTEMISININ], the “fractional inhibitory concentration index (FICI)” value [13] was 0.186.
With `C[C@H]1[C@@H](O)O[C@@H]2O[C@@]3(C)CC[C@H]4[C@H](C)CC[C@@H]1[C@@]24OO3` [ARTENIMOL] the “fractional inhibitory concentration index (FICI)” value [13] was 0.145.
